Data taken from patent US10119168B2, “Methods for the treatment of kidney fibrosis” (priority 2014, dated 2018).

Test system: mouse kidney
Assay: RNA-seq of kidney gene expression over time in FA nephropathy progression (Table 1)
Type: in vivo
From the text: Identification of Candidate Genes for Biomarkers of Kidney Fibrosis Through RNA-Seq. […] To select genes that are indicative of fibrosis candidates were considered from this later group that had robust upregulation (>5-fold with >100 read counts at peak) over time as fibrosis progresses. Another important criteria was the location of the protein product of the gene, either in extracellular matrix or transmembrane, to increase the chance of detecting it in the urine and use it as a biomarker(11).
(§1) RNA samples (n=3 mice/time point) were sequenced at the Bioplymers Facility at the Harvard Medical School. Libraries were prepared from 10 ng total RNA per sample using the IntegenX Apollo 324 system and NuGEN SPIA reagents. Libraries were multiplexed in groups of three per lane of a flowcell and 50 cycle, paired-end sequencing was performed on an Illumina HiSeq2000 instrument. Illumina sequence quality was surveyed with FastQC (available on the world wide web at bioinformatics.babraham.ac.uk/projects/fastqc/) to ensure suitability of library generation and sequencing for further analysis. Adapters and lower quality bases were trimmed with Cutadapt (available on the world wide web at code.google.com/p/cutadapt/), using a Phred quality cutoff of 20, and reassessed with FastQC. Trimmed reads were aligned to the Ensembl NCBIM37 Mus musculus genome build with TopHat2. Aligned reads were summarized at the gene level against the Illumina iGenomes (available on the world wide web at tophat.cbcb.umd.edu/igenomes.html) NCBIM37 Mus musculus gene annotations using HTSeq (available on the world wide web at huber.embl.de/users/anders/HTSeq/doc/overview.html). […] The full dataset is available in the NCBI GEO database with the accession number GSE65267. Raw data is accessible on the world wide web at ncbi.nlm.nih.gov/geo/query/acc.cgi?acc=GSE65267.
Mice were sacrificed at 1, 2, 3, 7 and 14 days following administration. […] All mice were sacrificed at 14 days.
as §1, with “The quantity and quality of mRNA” for “RNA samples (n=3 mice/time point)”, “assayed on an Agilent 2200 TapeStation instrument and by SYBR qPCR assay.” for “sequenced at the Bioplymers Facility at the Harvard Medical School.”, “(https://code.google.com/p/cutadapt/),” for “(available on the world wide web at code.google.com/p/cutadapt/),”

Q: What does the source list for `Nc1nc2ncc(CNc3ccc(C(=O)N[C@@H](CCC(=O)O)C(=O)O)cc3)nc2c(=O)[nH]1` [FA, folic acid]?
A: Slco1a1 mean fold change from normal (Day 2): 0.16 fold; Smoc2 mean fold change from normal (Day 2): 0.06 fold; Smpdl3b mean fold change from normal (Day 2): 124.22 fold; Snx31 mean fold change from normal (Day 2): 0.05 fold; Socs1 mean fold change from normal (Day 2): 53.23 fold; Sox4 mean fold change from normal (Day 2): 13.93 fold; Sox9 mean fold change from normal (Day 2): 49.89 fold; Spaca7 mean fold change from normal (Day 2): 74.80 fold; Spink6 mean fold change from normal (Day 2): 13.93 fold; Spp1 mean fold change from normal (Day 2): 174.85 fold; Spred3 mean fold change from normal (Day 2): 11.03 fold; Spsb1 mean fold change from normal (Day 2): 13.04 fold; Spt1c3 mean fold change from normal (Day 2): 0.11 fold; St8sia2 mean fold change from normal (Day 2): 2.10 fold; Stil mean fold change from normal (Day 2): 32.74 fold; Stk32a mean fold change from normal (Day 2): 7.59 fold; Stra6 mean fold change from normal (Day 2): 1.95 fold; Susd2 mean fold change from normal (Day 2): 0.07 fold; Sycn mean fold change from normal (Day 2): 0.07 fold; Synpr mean fold change from normal (Day 2): 0.02 fold; Sytl2 mean fold change from normal (Day 2): 5.53 fold; Tagln2 mean fold change from normal (Day 2): 6.40 fold; Tbx10 mean fold change from normal (Day 2): 0.10 fold; Timd2 mean fold change from normal (Day 2): 2.97 fold; Timp1 mean fold change from normal (Day 2): 194.76 fold; Tlr2 mean fold change from normal (Day 2): 12.76 fold; Tmem25 mean fold change from normal (Day 2): 0.34 fold; Tmem26 mean fold change from normal (Day 2): 0.07 fold; Tmem207 mean fold change from normal (Day 2): 0.02 fold; Tmsb10 mean fold change from normal (Day 2): 18.72 fold; Tnc mean fold change from normal (Day 2): 9.63 fold; Tnfaip3 mean fold change from normal (Day 2): 3.85 fold; Tnfrsf23 mean fold change from normal (Day 2): 7.62 fold; Top2a mean fold change from normal (Day 2): 15.75 fold; Tpx2 mean fold change from normal (Day 2): 10.97 fold; Tril mean fold change from normal (Day 2): 0.43 fold; Tsc22d1 mean fold change from normal (Day 2): 6.92 fold; Ttc36 mean fold change from normal (Day 2): 0.10 fold; Ttr mean fold change from normal (Day 2): 0.04 fold; Tyrobp mean fold change from normal (Day 2): 1.65 fold; Ugt3a1 mean fold change from normal (Day 2): 0.07 fold; Uhrf1 mean fold change from normal (Day 2): 31.75 fold; Upp2 mean fold change from normal (Day 2): 0.11 fold; Vcam1 mean fold change from normal (Day 2): 30.80 fold; Vill mean fold change from normal (Day 2): 0.28 fold; Vmn1r18 mean fold change from normal (Day 2): 0.01 fold; Vmn1r19 mean fold change from normal (Day 2): 0.02 fold; Vmn1r20 mean fold change from normal (Day 2): 0.34 fold; Vmn1r-ps11 mean fold change from normal (Day 2): 0.03 fold; Vstm2a mean fold change from normal (Day 2): 0.05 fold; Vtcn1 mean fold change from normal (Day 2): 44.16 fold; Vwce mean fold change from normal (Day 2): 0.08 fold; Wfdc15b mean fold change from normal (Day 2): 0.05 fold; Ybx2 mean fold change from normal (Day 2): 0.12 fold; 7SK RNA mean fold change from normal (Day 3): 0.08 fold; 2310042D19Rik mean fold change from normal (Day 3): 0.47 fold; 4930533I22Rik mean fold change from normal (Day 3): 0.22 fold; 4933417A18Rik mean fold change from normal (Day 3): 0.49 fold; 8430408G22Rik mean fold change from normal (Day 3): 0.34 fold; 9030619P08Rik mean fold change from normal (Day 3): 0.02 fold; Slc2a5 mean fold change from normal (Day 3): 0.21 fold; Slc4a1 mean fold change from normal (Day 3): 0.18 fold; Slc5a4a mean fold change from normal (Day 3): 0.51 fold; Slc5a12 mean fold change from normal (Day 3): 0.38 fold; Slc6a12 mean fold change from normal (Day 3): 0.26 fold; Slc7a13 mean fold change from normal (Day 3): 0.11 fold; Slc28a1 mean fold change from normal (Day 3): 0.18 fold; Slc34a1 mean fold change from normal (Day 3): 0.33 fold; Slc34a2 mean fold change from normal (Day 3): 7.59 fold; Slc34a3 mean fold change from normal (Day 3): 0.09 fold; Slc46a3 mean fold change from normal (Day 3): 0.57 fold; Slco1a1 mean fold change from normal (Day 3): 0.19 fold; Smoc2 mean fold change from normal (Day 3): 1.83 fold; Smpdl3b mean fold change from normal (Day 3): 111.13 fold; Snx31 mean fold change from normal (Day 3): 0.07 fold; Socs1 mean fold change from normal (Day 3): 43.48 fold; Sox4 mean fold change from normal (Day 3): 11.69 fold; Sox9 mean fold change from normal (Day 3): 52.43 fold; Spaca7 mean fold change from normal (Day 3): 18.32 fold; Spink6 mean fold change from normal (Day 3): 9.16 fold; Spp1 mean fold change from normal (Day 3): 63.01 fold; Spred3 mean fold change from normal (Day 3): 8.99 fold; Spsb1 mean fold change from normal (Day 3): 4.64 fold; Spt1c3 mean fold change from normal (Day 3): 1.02 fold; St8sia2 mean fold change from normal (Day 3): 10.17 fold; Stil mean fold change from normal (Day 3): 10.68 fold; Stk32a mean fold change from normal (Day 3): 5.33 fold; Stra6 mean fold change from normal (Day 3): 8.56 fold; Susd2 mean fold change from normal (Day 3): 0.32 fold
